Reference: US20110039905A1, “BENZIMIDAZOLE DERIVATIVES AS CALCIUM CHANNEL BLOCKERS” (priority 2008, published 2011)
pEC50, pIC50: −log10 of the molar value.

What was measured:
isolated mouse hearts = experiment: Effect on isolated hearts according to the Langendorff method; settings: read-out: EC50 (Langendorff experiment)
Experimental: The compounds were tested for their potential to reduce blood pressure and their effect on the contractility of the heart muscle. EC50 values on isolated mouse hearts were determined according to Literature (Doring H J., The isolated perfused heart according to Langendorff technique—function—application, Physiol. Bohemoslov. 1990, 39(6), 481-504; Kligfield P, Horner H, Brachfeld N., A model of graded ischemia in the isolated perfused rat heart, J. Appl. Physiol. 1976 June, 40(6), 1004-8).

human Cav1.2 channel = molecular target: T1, human Cav1.2 channel (Homo sapiens, UniProt Q13936); experiment: In vitro assay L channel (FLIPR, KCl-induced calcium fluorescence); type: cell-based; settings: HEK293 cells expressing human Cav1.2 with β-2a and α2δ-1; 20 mM KCl depolarization; range stated for the group; read-out: IC50 (L channel antagonistic activity)
T1 construct: expressed in transfected cells; host or cells: HEK293
T1 sequence (Q13936 whole entry): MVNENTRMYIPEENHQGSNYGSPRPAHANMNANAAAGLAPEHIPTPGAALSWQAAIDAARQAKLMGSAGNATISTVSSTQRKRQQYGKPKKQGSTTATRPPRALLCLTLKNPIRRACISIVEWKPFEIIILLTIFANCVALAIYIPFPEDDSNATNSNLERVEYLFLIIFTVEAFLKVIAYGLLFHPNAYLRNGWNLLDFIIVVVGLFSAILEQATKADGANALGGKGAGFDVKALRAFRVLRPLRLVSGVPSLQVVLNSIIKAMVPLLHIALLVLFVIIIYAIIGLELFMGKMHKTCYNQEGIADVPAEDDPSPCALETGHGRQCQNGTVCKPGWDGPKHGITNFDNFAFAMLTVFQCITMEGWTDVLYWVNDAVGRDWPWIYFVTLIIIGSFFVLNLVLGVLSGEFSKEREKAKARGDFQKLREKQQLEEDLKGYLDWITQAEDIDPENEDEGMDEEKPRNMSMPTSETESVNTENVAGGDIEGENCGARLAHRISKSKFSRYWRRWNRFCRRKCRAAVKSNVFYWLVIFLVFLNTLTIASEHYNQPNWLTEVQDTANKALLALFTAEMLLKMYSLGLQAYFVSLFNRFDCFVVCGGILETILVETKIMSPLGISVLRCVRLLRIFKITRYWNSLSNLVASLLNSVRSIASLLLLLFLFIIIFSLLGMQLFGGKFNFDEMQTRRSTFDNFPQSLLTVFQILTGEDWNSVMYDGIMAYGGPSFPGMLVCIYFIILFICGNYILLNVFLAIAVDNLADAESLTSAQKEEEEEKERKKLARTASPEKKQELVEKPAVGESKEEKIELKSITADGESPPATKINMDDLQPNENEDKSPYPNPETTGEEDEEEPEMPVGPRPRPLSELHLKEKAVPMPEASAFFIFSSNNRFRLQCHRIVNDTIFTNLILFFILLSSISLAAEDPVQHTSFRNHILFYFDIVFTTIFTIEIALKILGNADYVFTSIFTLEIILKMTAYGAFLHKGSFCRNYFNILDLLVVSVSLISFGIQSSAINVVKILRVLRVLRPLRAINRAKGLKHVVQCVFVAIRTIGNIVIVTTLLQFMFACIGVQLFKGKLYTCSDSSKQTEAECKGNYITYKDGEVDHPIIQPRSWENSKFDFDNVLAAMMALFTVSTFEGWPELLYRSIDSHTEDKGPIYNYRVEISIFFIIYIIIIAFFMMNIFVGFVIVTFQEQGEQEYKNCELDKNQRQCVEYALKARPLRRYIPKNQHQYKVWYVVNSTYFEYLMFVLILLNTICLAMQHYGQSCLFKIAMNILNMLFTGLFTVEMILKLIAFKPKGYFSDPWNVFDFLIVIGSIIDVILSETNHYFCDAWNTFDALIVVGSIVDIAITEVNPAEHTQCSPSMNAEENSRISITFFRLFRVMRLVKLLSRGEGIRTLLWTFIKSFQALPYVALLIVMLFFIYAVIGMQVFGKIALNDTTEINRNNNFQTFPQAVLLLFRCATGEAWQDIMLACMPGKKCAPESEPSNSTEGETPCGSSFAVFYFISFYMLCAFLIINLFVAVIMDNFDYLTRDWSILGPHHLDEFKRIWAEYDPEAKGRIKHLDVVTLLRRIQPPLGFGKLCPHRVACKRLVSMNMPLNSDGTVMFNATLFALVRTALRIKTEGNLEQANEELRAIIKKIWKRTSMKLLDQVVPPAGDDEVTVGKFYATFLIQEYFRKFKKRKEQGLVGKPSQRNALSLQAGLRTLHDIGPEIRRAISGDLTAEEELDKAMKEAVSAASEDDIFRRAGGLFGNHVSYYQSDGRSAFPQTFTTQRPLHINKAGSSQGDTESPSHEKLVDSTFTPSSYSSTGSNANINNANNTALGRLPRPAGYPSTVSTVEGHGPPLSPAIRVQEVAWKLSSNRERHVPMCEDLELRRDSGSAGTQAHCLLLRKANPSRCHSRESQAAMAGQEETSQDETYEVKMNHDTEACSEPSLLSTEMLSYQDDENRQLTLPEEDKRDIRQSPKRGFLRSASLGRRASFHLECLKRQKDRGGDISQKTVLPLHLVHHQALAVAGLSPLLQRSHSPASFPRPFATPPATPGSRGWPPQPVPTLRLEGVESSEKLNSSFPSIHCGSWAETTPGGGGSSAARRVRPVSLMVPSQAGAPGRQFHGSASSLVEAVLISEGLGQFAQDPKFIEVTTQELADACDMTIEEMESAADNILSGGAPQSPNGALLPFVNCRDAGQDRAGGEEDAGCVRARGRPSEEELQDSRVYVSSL
Experimental: The L channel antagonistic activity (IC50 values) of the compounds of formula (I) is determined in accordance with the following experimental method.
Human embryonic kidney (HEK293) cells expressing the human Cav1.2 channel in addition to the auxiliary subunits β-2a and α2δ-1, are grown in culture medium (DMEM containing 10% heat-inactivated fetal calf serum (FCS), 100 U/ml penicillin, 100 μg/ml streptomycin, 100 μg/ml G418, 40 μg/ml zeocin and 100 μg/ml hygromycin). The cells are seeded at 20,000 cells/well into 384-well black clear bottom sterile plates (poly-L-lysine-coated, Becton Dickinson). The seeded plates are incubated overnight at 37° C. in 5% CO2. The KCl solution is prepared as 80 mM stock solution in assay buffer (HBSS containing 0.1% BSA, 20 mM HEPES, 0.375 g/l NaHCO3, adjusted to pH 7.4 with NaOH) for use in the assay at a final concentration of 20 mM. Antagonists are prepared as 10 mM stock solutions in DMSO, then diluted in 384w plates first in DMSO, then in assay buffer to obtain 3× stocks. On the day of the assay, 25 μl of staining buffer (HBSS containing 20 mM HEPES, 0.375 g/l NaHCO3, and 30 μM of the fluorescent calcium indicator fluo-4 AM (1 mM stock solution in DMSO, containing 10% pluronic) is added to each well of the seeded plate. The 384-well cell-plates are incubated for 60 min at 37° C. in 5% CO2 followed by washing with […] using assay buffer leaving […] of this buffer for equilibration at room temperature (30-60 min). Within the Fluorescent Imaging Plate Reader (FLIPR, Molecular Devices), antagonists are added to the plate in a volume of 25 μl/well, incubated for 3 min and finally 25 μl/well of KCl solution is added for cellular depolarization. Fluorescence is measured for each well at 2 second intervals for 8 minutes, and the area under the curve of each fluorescence peak is compared to the area of the fluorescence peak induced by 20 mM KCl with vehicle in place of antagonist. […]

[1] = system: human Cav3.1 Cav3.2 or Cav3.3 channel; experiment: In vitro assay T channel (FLIPR, Ca2+-induced calcium fluorescence); type: cell-based; settings: HEK293 cells expressing human Cav3.1, Cav3.2 or Cav3.3; 10 mM Ca2+; subtype not specified in Table 1; read-out: IC50 (T channel antagonistic activity)
Experimental: The T channel antagonistic activity (IC50 values) of the compounds of formula (I) is determined in accordance with the following experimental method and data are shown in Table 1.
Human embryonic kidney (HEK293) cells expressing the human Cav3.1 Cav3.2 or Cav3.3 channel, respectively, are grown in culture medium (DMEM containing 10% heat-inactivated fetal calf serum (FCS), 100 U/ml penicillin, 100 μg/ml streptomycin and 1 mg/ml G418). The cells are seeded at 20,000 cells/well into 384-well black clear bottom sterile plates (poly-L-lysine-coated, Becton Dickinson). The seeded plates are incubated overnight at 37° C. in 5% CO2. […] On the day of the assay, 25 μl of staining buffer (HBSS containing 20 mM HEPES, 0.375 g/l NaHCO3 and 30 μM of the fluorescent calcium indicator fluo-4 AM (1 mM stock solution in DMSO, containing 10% pluronic) is added to each well of the seeded plate. The 384-well cell-plates are incubated for 60 min at 37° C. in 5% CO2 followed by washing with […] using HBSS containing 0.1% BSA, 20 mM HEPES, 0.375 g/l NaHCO3, leaving […] of this buffer for equilibration at room temperature (30-60 min). Within the Fluorescent Imaging Plate Reader (FLIPR, Molecular Devices), antagonists are added to the plate in a volume of […], incubated for 3 min, and finally […] of Ca^2+solution is added. […]

pEC50 (isolated mouse hearts)	pIC50 [1]	Compound	pIC50 (human Cav1.2 channel)
8.30	–	COc1ccc(OC)c2[nH]c(CCCN(C)CC[C@]3(OC(=O)C(C)C)C[C@H]4CC[C@@H]3C=C4c3ccccc3)nc12 (racemic) [Example 1A, rac-Isobutyric acid (1R*,2R*,4R*)-2-(2-{[3-(4,7-dimethoxy-1H-benzoimidazol-2-yl)-propyl]-methyl-amino}-ethyl)-5-phenyl-bicyclo[2.2.2]oct-5-en-2-yl ester]	6.36 to 6.81
–	–	COc1ccc(OC)c2[nH]c(CCCN(C)CC[C@]3(OC(=O)C(C)C)C[C@H]4CCC[C@@H]3C=C4c3ccccc3)nc12 (racemic) [Example 4A, rac-Isobutyric acid (1R*,5R*,6R*)-6-(2-{[3-(4,7-dimethoxy-1H-benzoimidazol-2-yl)-propyl]-methyl-amino}-ethyl)-8-phenyl-bicyclo[3.2.2]non-8-en-6-yl ester]	6.36 to 6.81
–	6.11	COc1ccc(OC)c2[nH]c(CCCN(C)CCC3(OC(=O)C(C)C)CC4CCC3C=C4c3ccccc3)nc12 (single isomer, unassigned) [Example 2A, Isobutyric acid (1R,2R,4R)-2-(2-{[3-(4,7-dimethoxy-1H-benzoimidazol-2-yl)-propyl]-methyl-amino}-ethyl)-5-phenyl-bicyclo[2.2.2]oct-5-en-2-yl ester or isobutyric acid (1S,2S,4S)-2-(2-{[3-(4,7-dimethoxy-1H-benzoimidazol-2-yl)-propyl]-methyl-amino}-ethyl)-5-phenyl-bicyclo[2.2.2]oct-5-en-2-yl ester]	6.36 to 6.81
–	6.10	COc1ccc(OC)c2[nH]c(CCCN(C)CCC3(OC(=O)C(C)C)CC4CCC3C=C4c3ccccc3)nc12 (single isomer, unassigned) [Example 3A, Isobutyric acid (1R,2R,4R)-2-(2-{[3-(4,7-dimethoxy-1H-benzoimidazol-2-yl)-propyl]-methyl-amino}-ethyl)-5-phenyl-bicyclo[2.2.2]oct-5-en-2-yl ester or isobutyric acid (1S,2S,4S)-2-(2-{[3-(4,7-dimethoxy-1H-benzoimidazol-2-yl)-propyl]-methyl-amino}-ethyl)-5-phenyl-bicyclo[2.2.2]oct-5-en-2-yl ester]	–
